In ChEMBL document CHEMBL1156270, “Small molecule JNK (c-Jun N-terminal kinase) inhibitors” (J Med Chem, 2010):

What was measured:
Mus musculus [1] = assay: Reduction of body weight in diet-induced obese mouse at 30 mg/kg, po for 24 days; assay type: functional; set-up: scale not given: the % may be the effect or the level left
[2] = biological target: T1, Mitogen-activated protein kinase 8 (Homo sapiens, UniProt P45983); assay: Inhibition of JNK1
Mus musculus [3] = assay: Reduction of fat mass in diet-induced obese mouse at 30 mg/kg, po for 24 days relative to control; assay type: functional; set-up: scale not given: the % may be the effect or the level left
[4] = biological target: Mitogen-activated protein kinase 9 (Homo sapiens, UniProt P45984); assay: Inhibition of JNK2
Mitogen-activated protein kinase 9, sequence (P45984 whole entry): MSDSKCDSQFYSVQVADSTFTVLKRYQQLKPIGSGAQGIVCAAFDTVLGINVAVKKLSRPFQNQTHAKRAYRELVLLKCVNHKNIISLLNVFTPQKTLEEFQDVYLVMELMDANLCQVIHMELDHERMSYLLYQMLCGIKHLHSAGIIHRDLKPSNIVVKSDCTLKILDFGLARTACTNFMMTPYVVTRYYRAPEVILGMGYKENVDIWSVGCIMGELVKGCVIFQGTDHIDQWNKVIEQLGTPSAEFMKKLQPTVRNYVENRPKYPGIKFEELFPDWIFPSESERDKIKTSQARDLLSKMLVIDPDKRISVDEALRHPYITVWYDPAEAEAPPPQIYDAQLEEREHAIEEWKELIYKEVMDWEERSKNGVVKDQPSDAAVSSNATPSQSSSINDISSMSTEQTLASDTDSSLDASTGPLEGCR

[5] = biological target: Mitogen-activated protein kinase 10 (Homo sapiens, UniProt P53779); assay: Inhibition of JNK3
Mitogen-activated protein kinase 10, sequence (P53779 whole entry): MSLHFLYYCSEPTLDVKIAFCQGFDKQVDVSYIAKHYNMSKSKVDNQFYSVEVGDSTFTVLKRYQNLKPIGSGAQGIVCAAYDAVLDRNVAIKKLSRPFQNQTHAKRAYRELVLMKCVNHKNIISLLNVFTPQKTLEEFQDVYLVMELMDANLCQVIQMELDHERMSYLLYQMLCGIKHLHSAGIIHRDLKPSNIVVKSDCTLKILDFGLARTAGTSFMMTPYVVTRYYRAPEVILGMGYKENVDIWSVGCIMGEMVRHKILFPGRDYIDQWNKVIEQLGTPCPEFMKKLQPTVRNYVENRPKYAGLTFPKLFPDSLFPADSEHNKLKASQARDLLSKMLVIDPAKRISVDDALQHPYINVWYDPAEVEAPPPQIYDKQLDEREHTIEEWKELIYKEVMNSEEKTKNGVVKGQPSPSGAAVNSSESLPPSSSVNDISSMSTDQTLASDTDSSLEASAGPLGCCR

[6] = biological target: Mitogen-activated protein kinase 14 (Homo sapiens, UniProt Q16539); assay: Inhibition of p38alpha
Mitogen-activated protein kinase 14, sequence (Q16539 whole entry): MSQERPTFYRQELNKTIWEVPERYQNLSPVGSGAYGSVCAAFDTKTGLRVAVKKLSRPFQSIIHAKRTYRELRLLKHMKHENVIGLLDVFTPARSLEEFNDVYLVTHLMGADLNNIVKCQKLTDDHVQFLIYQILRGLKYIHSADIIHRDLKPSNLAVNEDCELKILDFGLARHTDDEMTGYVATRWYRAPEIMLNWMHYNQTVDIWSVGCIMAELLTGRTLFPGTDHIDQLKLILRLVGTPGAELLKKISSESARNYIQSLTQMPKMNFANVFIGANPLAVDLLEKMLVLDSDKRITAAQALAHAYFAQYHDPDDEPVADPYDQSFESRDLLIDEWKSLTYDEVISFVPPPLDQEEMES

Mus musculus [7] = organism: Mus musculus; assay: Inhibition of LPS-induced TNFalpha production in mouse; assay type: functional
[8] = Oral bioavailability in rat; assay type: ADME, organism-based; conditions: in vivo
SCG = assay: Protection against NGF deprivation-induced neuronal apoptosis in rat SCG cells after 24 hrs by MTT assay; assay type: functional, cell-based
[9] = biological target: T1, Mitogen-activated protein kinase 8; assay: Binding affinity to JNK1

T1 sequence (P45983 whole entry): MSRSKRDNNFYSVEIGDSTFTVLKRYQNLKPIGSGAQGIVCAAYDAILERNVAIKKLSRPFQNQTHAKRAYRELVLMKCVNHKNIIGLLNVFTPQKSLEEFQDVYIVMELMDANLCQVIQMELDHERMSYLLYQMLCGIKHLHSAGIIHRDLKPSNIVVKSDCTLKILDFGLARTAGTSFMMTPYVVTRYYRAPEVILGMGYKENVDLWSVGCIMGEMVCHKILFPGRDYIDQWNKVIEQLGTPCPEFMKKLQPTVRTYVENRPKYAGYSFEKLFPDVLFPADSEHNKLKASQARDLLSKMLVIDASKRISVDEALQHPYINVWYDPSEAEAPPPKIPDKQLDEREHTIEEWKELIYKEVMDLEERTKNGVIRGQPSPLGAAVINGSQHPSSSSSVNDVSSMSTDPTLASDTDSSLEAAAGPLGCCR

Compound O[C@H]1CC[C@H](Nc2nccc(-c3c[nH]nc3C3CCCOC3)n2)CC1 (some centres undefined) has an Activity (Mus musculus [1]) of 13%, a Ki [2] of 9 nM and an Activity (Mus musculus [3]) of 30.1%. It also gave a Ki [4] of 17 nM and a Ki [5] of 16 nM.
With CN(C)CCCC(=O)Nc1cc(C(=O)O)cc(-c2n[nH]c3cc(Nc4ccccc4Cl)ccc23)c1 the IC50 [2] was 101 nM, the IC50 [5] was 3 nM and the IC50 [6] was 903 nM.
In the case of CCCNc1nccc(-c2c(-c3ccc(F)cc3)nc3n2[C@H](Cc2ccc(OC)cc2)CC3)n1, the IC50 [5] is reported as 10.9 nM and the IC50 [6] is reported as 54 nM.
CN(C)c1c(-c2ccnc(N[C@H]3CC[C@H](O)CC3)n2)cnn1Cc1ccccc1 showed a Ki [2] of 3 nM, a Ki [4] of 6 nM and a Ki [5] of 5 nM.
Compound N#C/C(=C1/Nc2ccccc2S1)c1ccnc(NCCc2cccnc2)n1 has an ED50 (Mus musculus [7]) of 3 mg/kg and a bioavailability [8] of 38%.
Compound O=C(NCCCn1cnc(-c2ccc(F)cc2)c1-c1ccncc1)c1ccccc1 has an IC50 [6] of 46 nM.
For c1ccc(Nc2ccc3c(-c4ccccc4)n[nH]c3c2)cc1, the IC50 [2] was > 10000 nM.
For O=C(NCc1ccc(S(=O)(=O)N2CCC(n3nnc4ccccc43)CC2)s1)c1ccc(Cl)cc1, the IC50 (SCG) was 1700 nM.
In the case of H-RPKRPTTLNLF-OH, the Kd [9] is reported as 420 nM.
